Results on four compounds are retold here after patent US10668043B2, “Potentiated antimicrobial agents” (priority 2014, dated 2020).

A word on the MIC: it is the lowest concentration found to suppress growth. Read a high MIC as a less susceptible organism.

≈ marks a conversion by molar mass, not a printed value.

One data set relates to Staphylococcus. Briefly: etest on agar containing the booster. Type of data set: cell-based. The note with it: MRSA 10178. From the text: (§1) The corresponding tests are made based on the usual MIC test: the etest® (Biomerieux) strip is deposited onto the surface of a seeded agar medium in which the booster has been incorporated. This test enables solvent effect risks, that is a possible interaction with the solvent used in vitro, to be minimised.
(§2) The control corresponds to the test made without cineol. A control is made in each solvent tested: distilled water, Tween/water and DMSO. • ED control=antibiotic alone in distilled water • DMSO control=antibiotic alone in DMSO • TE control=antibiotic alone in Tween® 80

Another data set has as its system E. coli. Description: etest on agar containing the booster. Format: cell-based. The note with it: Escherichia coli, Coli 8150.
Text: as §1, §2

The conditions of data set [1]: mouse, intravenous; cited from earlier work.
The conditions of data set [2]: orally; two mammal species (cats and rats); cited from earlier work.
The next data set concerns MSSA 8238. The note with it: Sc.; gentamycin 6 mg/kg or amoxicillin 30 mg/kg, cineol 30 mg/kg where present.
Setting [3] is: DMSO control (antibiotic alone).
The mark [4] stands for this setting: ED control (antibiotic alone in distilled water).
Setting [5] is: Tween water control (antibiotic alone).

Procedure for MSSA 8238: To Balb/c mice, is injected (Sc.) the antimicrobial product or the antimicrobial+booster mixture.
At different post-injection times, the mice are euthanised, and blood sampled, heparined and centrifuged to extract plasma thereof
Antibacterial effects are measured after 24 h incubation. The successive dilutions enable the antimicrobial effect to be determined and compared with the MIC. The efficient concentration/MIC ratio is thus determined.

For the compound `CC1(C)S[C@@H]2[C@H](NC(=O)Cc3ccccc3)C(=O)N2[C@H]1C(=O)O` [Penicillin G], the MIC against Staphylococcus (Cineol 1 mg DMSO) is 0.75^+ mg/L; with Staphylococcus (Cineol 1 mg Tween/water), 0.5 µg/mL (≈ 1.5 µM); in the data set with Staphylococcus (Cineol 4 mg DMSO), 0.5^+ mg/L; against Staphylococcus (Cineol 4 mg Tween/water) it was 0.38^+ mg/L; with Staphylococcus (Cineol 16 mg DMSO) it was 0.19^+ mg/L; in the data set on Staphylococcus (Cineol 16 mg Tween/water) it was 0.125^+ mg/L. For the same compound, the MIC amounted to 1.5 µg/mL (≈ 4.49 µM) in the data set with Staphylococcus (setting [3]), 1 µg/mL (≈ 2.99 µM) in the data set with Staphylococcus (setting [4]) and 0.5 µg/mL (≈ 1.5 µM) against Staphylococcus (setting [5]).
On to `CN(C)c1cc(NC(=O)CNC(C)(C)C)c(O)c2c1C[C@H]1C[C@H]3[C@H](N(C)C)C(O)=C(C(N)=O)C(=O)[C@@]3(O)C(O)=C1C2=O` [Tigecycline], for which the MIC against E. coli (Cineol 1 mg DMSO) amounted to 0.19 µg/mL (≈ 0.324 µM); in the data set with E. coli (Cineol 1 mg Tween/water), 0.125 µg/mL (≈ 0.213 µM); in the data set with E. coli (Cineol 4 mg DMSO) it was 0.125 µg/mL (≈ 0.213 µM); against E. coli (Cineol 4 mg Tween/water) it was 0.094 µg/mL (≈ 0.161 µM); against E. coli (Cineol 16 mg DMSO), 0.064 µg/mL (≈ 0.109 µM); in the data set with E. coli (Cineol 16 mg Tween/water), 0.1 µg/mL (≈ 0.171 µM). The MIC was determined as 0.19 µg/mL (≈ 0.324 µM) against E. coli (setting [3]); 0.125 µg/mL (≈ 0.213 µM) in the data set on E. coli (setting [4]); 0.125 µg/mL (≈ 0.213 µM) against E. coli (setting [5]); 0.19 µg/mL (≈ 0.324 µM) against Staphylococcus (Cineol 1 mg DMSO); 0.125 µg/mL (≈ 0.213 µM) against Staphylococcus (Cineol 1 mg Tween/water); 0.19 µg/mL (≈ 0.324 µM) against Staphylococcus (Cineol 4 mg DMSO). Moreover, the MIC in the data set on Staphylococcus (Cineol 4 mg Tween/water) was determined as 0.094 µg/mL (≈ 0.161 µM); against Staphylococcus (Cineol 16 mg DMSO), 0.125 µg/mL (≈ 0.213 µM); in the data set on Staphylococcus (Cineol 16 mg Tween/water) it was 0.094 µg/mL (≈ 0.161 µM); in the data set on Staphylococcus (setting [3]), 0.25 µg/mL (≈ 0.427 µM); against Staphylococcus (setting [4]), 0.125 µg/mL (≈ 0.213 µM); with Staphylococcus (setting [5]) it was 0.125 µg/mL (≈ 0.213 µM).
With `Cc1ccc(C(C)C)cc1O` [carvacrol], the “LD 50” value in data set [1] is recorded as 80 mg/kg. Moreover, the lowest letal dose in data set [2] is 100 mg/kg.
Regarding gentamycin, in the data set on MSSA 8238, the “Time spent beyond the MIC” value is reported as below 5 h.
